Key:
[1] = biological target: T1, human TLR2 (Homo sapiens, UniProt O60603); assay: HEK-Blue hTLR2 NF-κB/AP-1-inducible SEAP reporter cell assay; assay type: cell-based; conditions: Figure 3; 10 µg/mL to 10 pg/ml, 24 hours, SEAP read as OD at 655 nm
T1 construct: host or cells: HEK293 (ATCC, CRL-1573), HEK-Blue hTLR2
Description: (§1) Assays for detecting TLR7, TLR8 or TLR2 activity are known in the art and include for example cell-based assays using respectively TLR7, TLR8 or TLR2 reporter cell lines (InvivoGen). The reporter cell lines are engineered HEK293 cells, a human embryonic kidney cell line (ATCC, CRL-1573) that stably express either murine TLR7 (HEK-Blue™ mTLR7) or human TLR7 (HEK-Blue™ hTLR7), human TLR8 (HEK-Blue™ hTLR8) or human TLR2 (HEK- Blue™ hTLR2) with an NF-κB-inducible secreted embryonic alkaline phosphatase (SEAP) as the reporter gene.
(§2) Cell-based assays were carried out using TLR7 and TLR2 reporter cell lines (InvivoGen). The reporter cell lines are engineered HEK293 cells, a human embryonic kidney cell line (ATCC, CRL-1573) that stably express either murine TLR7 (HEK-Blue™ mTLR7) or human TLR7 (HEK-Blue™ hTLR7) or human TLR2 (HEK- Blue™ hTLR2) with an NF-κB-inducible secreted embryonic alkaline phosphatase (SEAP) as the reporter gene. The SEAP reporter gene is under the control of the NF-κB and AP-1-inducible promoter, which, upon treatment with a corresponding TLR ligand and activation of NF-κB and AP-1, induces the production of SEAP. Detection of SEAP is measured following culturing cells in HEK-Blue™ Detection media (InvivoGen). HEK-Blue™ Detection contains a SEAP substrate that when hydrolysed by SEAP produces a colorimetric change allowing for detection of SEAP as the protein is secreted. […] These assays were carried out using RAW-Blue™ Cells (InvivoGen), derived from RAW 264.7 mouse leukemic monocyte macrophage cell line (ATCC, CRL 2278) stably overexpressing a NF-κB /AP-1 inducible SEAP reporter constructs.
(§3) To perform the assay, cells were seeded on 96 well microliter plates at 50,000 or 100,000 cells per well for HEK-Blue™ Cells and RAW-Blue™ Cells respectively, and cultured at 37 °C in the presence of the conjugated compounds The TLR7-TLR2 polyamine molecules were prepared as follows: First, stock solutions of the conjugated compounds of the invention were prepared in ethanol or water to a concentration of 10 mg/ml.
(§4) The working dilutions of the conjugated TLR7-TLR2 polyamine agonists made up in water or PBS were directly added to the reporter cell lines at a final concentration ranging from 10 µg/mL to 10 pg/ml and incubated at 37 °C for 24 hours. After 24 hours of incubation, the effect on reporter gene activity was determined by reading the OD at 655 nm using iMark™ Microplate Reader (BIO-RAD).

[2] = biological target: T2, human TLR7 (Homo sapiens, UniProt Q9NYK1); assay: HEK-Blue hTLR7 NF-κB/AP-1-inducible SEAP reporter cell assay; assay type: cell-based; conditions: Figure 1; 10 µg/mL to 10 pg/ml, 24 hours, SEAP read as OD at 655 nm
T2 construct: host or cells: HEK293 (ATCC, CRL-1573), HEK-Blue hTLR7
T2 sequence (Q9NYK1 27-1049): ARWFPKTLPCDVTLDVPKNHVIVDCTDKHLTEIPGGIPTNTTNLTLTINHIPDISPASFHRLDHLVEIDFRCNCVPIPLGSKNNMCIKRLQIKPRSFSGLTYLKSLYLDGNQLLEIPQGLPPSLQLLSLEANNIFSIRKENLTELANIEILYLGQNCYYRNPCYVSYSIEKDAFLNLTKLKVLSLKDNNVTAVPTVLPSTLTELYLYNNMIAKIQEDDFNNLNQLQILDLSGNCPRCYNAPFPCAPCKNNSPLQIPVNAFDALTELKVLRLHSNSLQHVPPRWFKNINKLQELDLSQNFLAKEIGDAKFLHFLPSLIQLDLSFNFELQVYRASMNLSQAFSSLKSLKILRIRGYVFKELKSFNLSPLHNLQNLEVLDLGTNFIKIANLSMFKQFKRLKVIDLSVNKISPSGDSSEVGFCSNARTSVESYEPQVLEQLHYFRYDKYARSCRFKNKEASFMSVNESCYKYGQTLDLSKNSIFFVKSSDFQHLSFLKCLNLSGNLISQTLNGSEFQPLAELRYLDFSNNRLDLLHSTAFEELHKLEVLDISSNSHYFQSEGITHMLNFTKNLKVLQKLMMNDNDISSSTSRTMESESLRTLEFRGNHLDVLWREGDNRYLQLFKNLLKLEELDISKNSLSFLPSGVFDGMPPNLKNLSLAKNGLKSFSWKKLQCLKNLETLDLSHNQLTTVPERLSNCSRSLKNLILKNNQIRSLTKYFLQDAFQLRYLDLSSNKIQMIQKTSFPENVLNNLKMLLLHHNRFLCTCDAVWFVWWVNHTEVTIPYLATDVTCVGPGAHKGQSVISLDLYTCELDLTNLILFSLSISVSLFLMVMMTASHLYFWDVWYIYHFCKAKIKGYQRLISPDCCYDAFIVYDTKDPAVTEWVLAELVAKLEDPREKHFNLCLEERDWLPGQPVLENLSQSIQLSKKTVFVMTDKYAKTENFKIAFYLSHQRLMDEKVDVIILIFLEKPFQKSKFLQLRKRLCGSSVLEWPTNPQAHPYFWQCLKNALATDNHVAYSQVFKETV
Description: as §1, §2, §3, §4

[3] = test system: HEK293 cells; assay: Cell transfection with SEAP plasmid, HEK293; assay type: cell-based, human; conditions: Figure 5A; in complex with pVitro14 LGFP SEAP plasmid, 48 hours, SEAP reporter gene expression
Experimental: The TLR7-TLR2 molecules were tested for their ability as polyamine molecules to transport plasmid DNA (pDNA) into cells. The pVitro14 LGFP SEAP plasmid (InvivoGen) was complexed to TLR7-TLR2 polyamine molecules and to the control cationic lipid transfection agent, LyoVec™ (InvivoGen). The human HEK293 (ATCC, CRL-1573) and mouse B16-F1 melanoma (ATCC, CRL-6323) cell lines were seeded at a density of 50 000 cells/well and 20 000 cells/well respectively, in the absence or presence of different volumes of the plasmid encoding for the SEAP protein in complex with TLR7-TLR2 polyamine molecules for 48 hours at 37°C and 10% CO2. Transfection efficiency was assessed by measuring SEAP reporter gene expression: 20 µl of supernatant was sampled and mixed with 180 µl of QUANTI-Blue™ Detection (InvivoGen). In the presence of alkaline phosphatase SEAP, the color of QUANTI-Blue™ changes from pink to purple/blue. The intensity of the blue hue reflects the activity of SEAP. The levels of SEAP secretion were determined quantitatively by reading the OD at 620-655 nm using a spectrophotometer, iMark™ Microplate Reader (BIO-RAD).

T1 sequence (O60603 21-784): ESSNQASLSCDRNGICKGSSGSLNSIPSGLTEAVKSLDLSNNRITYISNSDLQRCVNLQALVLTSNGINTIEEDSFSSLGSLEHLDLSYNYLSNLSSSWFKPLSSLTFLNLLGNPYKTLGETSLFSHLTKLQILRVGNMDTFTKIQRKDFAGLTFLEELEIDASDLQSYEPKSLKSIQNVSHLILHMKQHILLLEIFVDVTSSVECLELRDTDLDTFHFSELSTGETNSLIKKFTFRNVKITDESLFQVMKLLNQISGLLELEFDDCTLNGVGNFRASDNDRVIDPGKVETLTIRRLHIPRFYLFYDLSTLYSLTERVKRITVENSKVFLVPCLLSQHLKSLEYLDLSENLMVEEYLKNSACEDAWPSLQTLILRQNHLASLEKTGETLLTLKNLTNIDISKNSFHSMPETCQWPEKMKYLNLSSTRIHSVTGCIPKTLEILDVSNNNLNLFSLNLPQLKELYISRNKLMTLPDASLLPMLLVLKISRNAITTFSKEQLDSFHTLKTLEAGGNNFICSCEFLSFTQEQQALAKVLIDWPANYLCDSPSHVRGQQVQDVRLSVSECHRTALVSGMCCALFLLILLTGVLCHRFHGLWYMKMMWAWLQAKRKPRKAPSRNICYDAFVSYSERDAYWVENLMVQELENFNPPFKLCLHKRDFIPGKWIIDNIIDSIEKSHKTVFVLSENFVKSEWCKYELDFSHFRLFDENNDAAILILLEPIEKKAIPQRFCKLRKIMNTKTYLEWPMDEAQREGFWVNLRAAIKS

| ability to activate hTLR2 [1] | ability to activate hTLR7 [2] | SMILES | ability to transfect HEK293 cells [3] |
| --- | --- | --- | --- |
| activate hTLR2 | activate hTLR7 | CCCCCCCCCCCCCCCC(=O)OCC(CSC[C@H](N)C(=O)NCCCC[C@H](NC(=O)c1ccc(Cn2c(O)nc3c(N)nc(NCCCC)nc32)cc1)C(=O)NCCCNCCCCNCCCN)OC(=O)CCCCCCCCCCCCCCC (stereo partly drawn) [CL486, (6R,13S)-6,27-diamino-13-(4-((6-amino-2-(butylamino)-8-hydroxy-9H-purin-9-yl)methyl)benzamido)-7,14-dioxo-4-thia-8,15,19,24-tetraazaheptacosane-1,2-diyl dipalmitate] |  |
| activate hTLR2 | activate hTLR7 | CCCCCCCCCCCCCCCC(=O)OCC(CSC[C@H](N)C(=O)N[C@@H](COC(=O)c1ccc(Cn2c(O)nc3c(N)nc(NCCCC)nc32)cc1)C(=O)NCCCNCCCCNCCCN)OC(=O)CCCCCCCCCCCCCCC (stereo partly drawn) [CL514, (6R,9S)-6,23-diamino-9-((4-((6-amino-2-(butylamino)-8-hydroxy-9H-purin-9-yl)methyl)benzoyloxy)methyl)-7,10-dioxo-4-thia-8,11,15,20-tetraazatricosane-1,2-diyl dipalmitate] | transfect HEK293 cells |
| activate hTLR2 | activate hTLR7 | CCCCCCCCCCCCCCCC(=O)OCC(CSC[C@H](N)C(=O)N[C@@H](CCC(=O)NCCCNCCCCNCCCN)C(=O)Nc1ccc(Cn2c(O)nc3c(N)nc(NCCCC)nc32)cc1)OC(=O)CCCCCCCCCCCCCCC (stereo partly drawn) [CL527, (6R,9S)-6,25-diamino-9-(4-((6-amino-2-(butylamino)-8-hydroxy-9H-purin-9-yl)methyl)phenylcarbamoyl)-7,12-dioxo-4-thia-8,13,17,22-tetraazapentacosane-1,2-diyl dipalmitate] | transfect HEK293 cells |
| activate hTLR2 | activate hTLR7 | CCCCCCCCCCCCCCCC(=O)OCC(CSC[C@H](N)C(=O)N[C@@H](CCCCNC(=O)CNC(=O)c1ccc(Cn2c(O)nc3c(N)nc(NCCCC)nc32)cc1)C(=O)NCCCNCCCCNCCCN)OC(=O)CCCCCCCCCCCCCCC (stereo partly drawn) [CL475, (6R,9S)-6,23-diamino-9-(4-(2-(4-((6-amino-2-(butylamino)-8-hydroxy-9H-purin-9-yl)methyl)benzamido)acetamido)butyl)-7,10-dioxo-4-thia-8,11,15,20-tetraazatrico sane-1,2-diyl dipalmitate] |  |
| activate hTLR2 | activate hTLR7 | CCCCCCCCCCCCCCCC(=O)OCC(CSC[C@H](N)C(=O)NCCCNCCCCNCCCNC(=O)CNC(=O)c1ccc(Cn2c(O)nc3c(N)nc(NCCCC)nc32)cc1)OC(=O)CCCCCCCCCCCCCCC (stereo partly drawn) [CL553, (20R)-20-amino-1-(4-((6-amino-2-(butylamino)-8-hydroxy-9H-purin-9-yl)methyl)phenyl)-1,4,19-trioxo-22-thia-2,5,9,14,18-pentaazapentacosane-24,25-diyl dipalmitate] | transfect HEK293 cells |
| activate hTLR2 | activate hTLR7 | CCCCCCCCCCCCCCCC(=O)OCC(CSC[C@H](N)C(=O)NCCCC[C@H](NC(=O)CNC(=O)c1ccc(Cn2c(O)nc3c(N)nc(NCCCC)nc32)cc1)C(=O)NCCCNCCCCNCCCN)OC(=O)CCCCCCCCCCCCCCC (stereo partly drawn) [CL487, (6R,13S)-6,27-diamino-13-(2-(4-((6-amino-2-(butylamino)-8-hydroxy-9H-purin-9-yl)methyl)benzamido)acetamido)-7,14-dioxo-4-thia-8,15,19,24-tetraazaheptacosane-1,2-diyl dipalmitate] |  |

From EP2769738B1, “Conjugated TLR7 and/or TLR8 and TLR2 polycationic agonists” (Invivogen, priority 2013, dated 2014)
